Molecules are shown by their SMILES. Where two headings read alike, the source gives them in different places. Starred links: 1 amine or outer side, 2 acyl side, 3 side chain; linkers in the order of their positions; H or OH if unused. Non-standard residues stand in square brackets, D forms with d. Residues, ends and D or L forms follow the SMILES beside them. Groups on a side chain read outwards from the residue. *: point of attachment. C20 diacid = O=C(O)CCCCCCCCCCCCCCCCCCC(=O)*; γGlu = O=C(O)[C@H](CCC(=O)[*:2])N[*:1]; Nle = CCCC[C@H](N)C(=O)O; AEEA = NCCOCCOCC(=O)O

This is an account of results in patent publication EP4810052A2, “HCRHR2 SELECTIVE POLYPEPTIDES” (Gubra A/S, priority 2023, dated 2026).

One assay addresses T1, hCRHR2 (Homo sapiens, UniProt Q13324).
T1 sequence (Q13324 1-411): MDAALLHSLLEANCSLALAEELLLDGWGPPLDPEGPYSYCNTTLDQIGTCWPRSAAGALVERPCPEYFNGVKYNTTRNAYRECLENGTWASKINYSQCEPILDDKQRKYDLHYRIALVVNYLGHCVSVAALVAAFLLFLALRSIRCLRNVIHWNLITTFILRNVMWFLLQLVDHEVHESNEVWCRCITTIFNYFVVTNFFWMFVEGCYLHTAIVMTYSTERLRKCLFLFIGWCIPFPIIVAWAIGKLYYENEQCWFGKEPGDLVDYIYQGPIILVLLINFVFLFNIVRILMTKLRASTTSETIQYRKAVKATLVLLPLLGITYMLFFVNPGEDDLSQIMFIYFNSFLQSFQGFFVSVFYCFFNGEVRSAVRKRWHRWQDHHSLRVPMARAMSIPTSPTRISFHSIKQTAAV
In words: HTRF cAMP assay, determination of hCRHR2 potency (peptide libraries 5 conc., purified peptides 11 conc.). The assay is classed as cell-based. Summed up:
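Potency was read as cAMP accumulation in a stable CHO-K1 line expressing human CRHR2, used in suspension right after thawing. Detection relied on energy transfer from antibody-bound cryptate to d2-cAMP.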
A general note: Time-resolved FRET reads energy transfer from a long-lived donor to a nearby acceptor.

The target of another assay is T2, hCRHR1 (Homo sapiens, UniProt P34998).
T2 sequence (P34998 24-415): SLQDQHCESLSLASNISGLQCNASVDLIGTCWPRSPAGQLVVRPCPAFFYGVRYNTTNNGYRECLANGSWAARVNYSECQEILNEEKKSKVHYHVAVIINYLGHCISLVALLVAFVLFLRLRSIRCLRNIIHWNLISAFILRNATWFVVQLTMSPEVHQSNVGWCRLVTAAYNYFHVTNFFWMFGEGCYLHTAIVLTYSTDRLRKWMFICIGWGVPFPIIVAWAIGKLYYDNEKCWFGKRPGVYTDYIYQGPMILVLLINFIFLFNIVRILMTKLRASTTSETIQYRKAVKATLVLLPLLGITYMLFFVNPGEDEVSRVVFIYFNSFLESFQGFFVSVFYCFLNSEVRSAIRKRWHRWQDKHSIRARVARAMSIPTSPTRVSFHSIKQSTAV
Nature of the assay: HTRF cAMP assay, determination of hCRHR1 potency (peptide libraries 5 conc., purified peptides 11 conc.). The assay is classed as cell-based. In a few lines: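 CHO-K1 cells stably expressing human CRHR1, thawed from frozen stocks just before use, were stimulated in suspension with agonist peptides. cAMP was measured by HTRF competitive immunoassay (cryptate anti-cAMP antibody vs d2-cAMP).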

Consider `CCCC[C@H](NC(=O)[C@@H](NC(=O)[C@H](CCC(=O)O)NC(=O)[C@H](C)NC(=O)[C@H](CC(N)=O)NC(=O)[C@@H](NC(=O)[C@H](CCCCNC(=O)COCCOCCNC(=O)COCCOCCNC(=O)CC[C@H](NC(=O)CC[C@H](NC(=O)CCCCCCCCCCCCCCCCCCC(=O)O)C(=O)O)C(=O)O)NC(=O)[C@H](C)NC(=O)[C@H](CCC(=O)O)NC(=O)[C@H](CCC(=O)O)NC(=O)[C@H](CCCNC(=N)N)NC(=O)[C@H](CCC(N)=O)NC(=O)[C@H](C)NC(=O)[C@H](CCCNC(=N)N)NC(=O)[C@H](C)NC(=O)[C@H](CCCNC(=N)N)NC(=O)[C@H](C)NC(=O)[C@H](CCC(N)=O)NC(=O)[C@H](CCC(=O)O)NC(=O)[C@H](CC(C)C)NC(=O)[C@H](CC(C)C)NC(=O)[C@@H](NC(=O)[C@H](CCC(N)=O)NC(=O)[C@H](CC(C)C)NC(=O)[C@H](CC(C)C)NC(=O)CNC(=O)[C@@H](NC(=O)[C@@H]1CCCN1C(=O)[C@@H](NC(=O)[C@H](CC(=O)O)NC(=O)[C@H](CC(C)C)NC(=O)[C@H](CO)NC(=O)[C@H](CC(C)C)NC(=O)[C@@H](NC(=O)[C@@H](N)[C@@H](C)CC)C(C)C)C(C)C)[C@@H](C)CC)[C@@H](C)CC)[C@@H](C)O)[C@@H](C)CC)C(=O)N[C@@H](C)C(=O)N[C@@H](CCC(=O)O)C(=O)N[C@H](C(N)=O)C(C)C` [SEQ ID NO: 34] (H-IVLSLDVPIGLLQILLEQARARAQREEAK([AEEA-AEEA-γGlu-γGlu-C20 diacid])TNAEI[Nle]AEV-NH2), for which the EC50 is 0.251 nM on hCRHR2 (Table 3, matched molecular pairs X^38 L vs Nle, peptide library of Example 4, read-out: hCRHR2 pEC50 (converted)) and 100000 nM on hCRHR1 (Table 3, matched molecular pairs X^38 L vs Nle, peptide library of Example 4, read-out: hCRHR1 pEC50 (converted)).

As for `CCCC[C@H](NC(=O)[C@@H](NC(=O)[C@H](CCC(=O)O)NC(=O)[C@H](C)NC(=O)[C@H](CC(N)=O)NC(=O)[C@@H](NC(=O)[C@H](CCCCNC(=O)COCCOCCNC(=O)COCCOCCNC(=O)CC[C@H](NC(=O)CC[C@H](NC(=O)CCCCCCCCCCCCCCCCCCC(=O)O)C(=O)O)C(=O)O)NC(=O)[C@H](C)NC(=O)[C@H](CCC(N)=O)NC(=O)[C@H](CCC(N)=O)NC(=O)[C@H](CCCNC(=N)N)NC(=O)[C@H](C)NC(=O)[C@H](C)NC(=O)[C@H](CCC(N)=O)NC(=O)[C@H](C)NC(=O)[C@H](CCCNC(=N)N)NC(=O)[C@H](C)NC(=O)[C@H](CCC(N)=O)NC(=O)[C@H](CCC(=O)O)NC(=O)[C@H](CC(C)C)NC(=O)[C@H](CC(C)C)NC(=O)[C@@H](NC(=O)[C@H](CCC(N)=O)NC(=O)[C@H](CC(C)C)NC(=O)[C@H](CC(C)C)NC(=O)CNC(=O)[C@@H](NC(=O)[C@@H]1CCCN1C(=O)[C@@H](NC(=O)[C@H](CC(=O)O)NC(=O)[C@H](CC(C)C)NC(=O)[C@H](CO)NC(=O)[C@H](CC(C)C)NC(=O)[C@@H](NC(=O)[C@@H](N)[C@@H](C)CC)C(C)C)C(C)C)[C@@H](C)CC)[C@@H](C)CC)[C@@H](C)O)[C@@H](C)CC)C(=O)N[C@@H](C)C(=O)N[C@@H](CCC(=O)O)C(=O)N[C@H](C(N)=O)C(C)C` [compound 55] (H-IVLSLDVPIGLLQILLEQARAQAARQQAK([AEEA-AEEA-γGlu-γGlu-C20 diacid])TNAEI[Nle]AEV-NH2), the EC50 at hCRHR2 (library peptides, matched molecular pairs L vs Nle in position X^38, read-out: Potency hCRHR2 pEC50 (converted)) is 0.126 nM; at hCRHR1 (library peptides, matched molecular pairs L vs Nle in position X^38, read-out: Potency hCRHR1 pEC50 (converted)) it was 251 nM.
